For 44 compounds, IC50 results are on record in patent US11548888B2, “KRas G12C inhibitors” (Mirati Therapeutics, Inc., priority 2019, dated 2023).

T1 sequence (P01116 1-188 isoform P01116-2 G12C): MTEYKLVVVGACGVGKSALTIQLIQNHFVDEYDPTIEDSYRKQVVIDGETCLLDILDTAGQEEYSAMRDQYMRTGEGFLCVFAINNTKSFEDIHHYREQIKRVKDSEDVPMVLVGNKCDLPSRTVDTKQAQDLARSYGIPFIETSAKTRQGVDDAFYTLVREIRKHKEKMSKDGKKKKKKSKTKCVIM

This assay addresses T1, KRas G12C (Homo sapiens, UniProt P01116, G12C).
T1 construct: NCI-H358 cells (ATCC CRL-5807) express KRas G12C
As to the kind of experiment: Inhibition of KRas G12C-dependent cell growth: Phospho-ERK in NCI-H358 cells. Conditions: NCI-H358 cells expressing KRas G12C; Phospho-ERK (Thr202/Tyr204) normalized to GAPDH; 3 hours compound; 4 parameter fit. Format: cell-based. The method in brief: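 Phospho-ERK read-out in KRas G12C-expressing NCI-H358 cells after 3 h compound treatment (final DMSO 0.5%), by in-cell infrared immunodetection. Signal normalized to GAPDH and to DMSO controls. 4-parameter curve fit gave IC50.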
As a reminder, the IC50 is the midpoint of a concentration-inhibition curve. A high value points to lower potency. For `C=C(F)C(=O)N1CCN(c2nc(OC[C@H]3[C@@H]4CC[C@@H](C4)N3CCF)nc3c(F)c(-c4cccc5ccc(F)c(Cl)c45)ncc23)C[C@@H]1CC#N` [Example 195], the IC50 turned out to be 31 nM.

`C=C(F)C(=O)N1CCN(c2nc(OC[C@H]3[C@@H]4CC[C@@H](C4)N3CC(F)F)nc3c(F)c(-c4cccc5ccc(F)c(Cl)c45)ncc23)C[C@@H]1CC#N` [Example 196]: the IC50 is 1730 nM.

Consider `C=CC(=O)N1CCN(c2ncnc3c(F)c(-c4cccc5ccc(F)cc45)ncc23)C[C@@H]1CC#N` [Example 197], for which the IC50 was 165 nM.

`C=CC(=O)N1CCN(c2ncnc3c(F)c(-c4c(C)c(C)cc5[nH]ncc45)ncc23)CC1` [Example 198]: the half-inhibitory concentration (IC50) stood at 8000 nM.

With `C=CC(=O)N1CCN(c2nc(C(F)(F)F)nc3c(F)c(-c4cccc5ccc(F)c(Cl)c45)ncc23)C[C@@H]1CC#N` [Example 199], the midpoint of inhibition, the IC50, lay at 3400 nM.

In the case of `CN(C)CC#CC(=O)N1CCN(c2ncnc3c(F)c(-c4cccc5ccc(F)c(Cl)c45)ncc23)CC1` [Example 200], the IC50 amounted to 410 nM.

The compound `CC#CC(=O)N1CCN(c2ncnc3c(F)c(-c4cccc5ccc(F)c(Cl)c45)ncc23)CC1` [Example 201] had an IC50 of 10000 nM.

On to `C=CS(=O)(=O)N1CCN(c2ncnc3c(F)c(-c4cccc5ccc(F)c(Cl)c45)ncc23)CC1` [Example 205], for which 10000 nM corresponded to half-maximal inhibition (IC50).

`C=CC(=O)N1CCN(c2nc(C)nc3c(F)c(-c4cc(O)cc5ccccc45)ncc23)CC1` [Example 206] returned an IC50 of 1680 nM.

Compound `C=C(F)C(=O)N1CCN(c2nc(Oc3cccc4c3CCN(C)C4)nc3c(F)c(-c4cccc5ccc(F)c(Cl)c45)ncc23)C[C@@H]1CC#N` [Example 207] came in with an IC50 of 6850 nM.

Consider `C=C(F)C(=O)N1CCN(c2nc(OCC3(C)C(OC)CN3C)nc3c(F)c(-c4cccc5ccc(F)c(Cl)c45)ncc23)C[C@@H]1CC#N` (some centres unmarked) [Example 208], for which the IC50 amounted to 4 nM.

`C=C(F)C(=O)N1CCN(c2nc(OC[C@@H]3CCCN3C3CC3)nc3c(F)c(-c4cccc5ccc(F)c(Cl)c45)ncc23)C[C@@H]1CC#N` [Example 209] showed an IC50 of 46 nM.

In the case of `C=C(F)C(=O)N1CCN(c2nc(OC[C@@H]3CC(F)(F)CN3C)nc3c(F)c(-c4cccc5ccc(F)c(Cl)c45)ncc23)C[C@@H]1CC#N` [Example 210], the midpoint of inhibition, the IC50, lay at 49 nM.

As for `C=C(F)C(=O)N1CCN(c2nc(OC[C@@H]3CCCN3C)nc3c(O)c(-c4cccc5cccc(C)c45)ncc23)C[C@@H]1CC#N` [Example 211, 2-((S)-1-(2-fluoroacryloyl)-4-(8-hydroxy-7-(8-methylnaphthalen-1-yl)-2-(((S)-1-methylpyrrolidin-2-yl)methoxy)pyrido[4,3-d]pyrimidin-4-yl)piperazin-2-yl)acetonitrile], the IC50 was 2 nM.

`C#Cc1cccc2cccc(-c3ncc4c(N5CCN(C(=O)C(=C)F)[C@@H](CC#N)C5)nc(OC[C@@H]5CCCN5C)nc4c3F)c12` [Example 212, 2-((S)-4-(7-(8-ethynylnaphthalen-1-yl)-8-fluoro-2-(((S)-1-methylpyrrolidin-2-yl)methoxy)pyrido[4,3-d]pyrimidin-4-yl)-1-(2-fluoroacryloyl)piperazin-2-yl)acetonitrile] had an IC50 of 7 nM.

`C#Cc1cccc2cccc(-c3ncc4c(N5CCN(C(=O)C=C)CC5)nc(OC[C@@H]5CCCN5C)nc4c3F)c12` [Example 213, (S)-1-(4-(7-(8-ethynylnaphthalen-1-yl)-8-fluoro-2-((1-methylpyrrolidin-2-yl)methoxy)pyrido[4,3-d]pyrimidin-4-yl)piperazin-1-yl)prop-2-en-1-one] displayed an IC50 of 62 nM.

In the case of `C#Cc1cccc2cccc(-c3ncc4c(N5CCN(C(=O)C=C)CC5)ncnc4c3F)c12` [Example 214, 1-(4-(7-(8-ethynylnaphthalen-1-yl)-8-fluoropyrido[4,3-d]pyrimidin-4-yl)piperazin-1-yl)prop-2-en-1-one], half-maximal inhibition (IC50) was put at 2110 nM.

In the case of `C#Cc1cccc2cc(O)cc(-c3ncc4c(N5CCN(C(=O)C=C)CC5)ncnc4c3F)c12` [Example 215, 1-(4-(7-(8-ethynyl-3-hydroxynaphthalen-1-yl)-8-fluoropyrido[4,3-d]pyrimidin-4-yl)piperazin-1-yl)prop-2-en-1-one], the IC50 amounted to 31 nM.

On to `C=C(F)C(=O)N1CCN(c2nc(OCC34CCCN3C(CO)CC4)nc3c(F)c(-c4cccc5ccc(F)c(Cl)c45)ncc23)C[C@@H]1CC#N` (some centres unmarked) [Example 216, 2-((2 S)-4-(7-(8-chloro-7-fluoronaphthalen-1-yl)-8-fluoro-2-((3-(hydroxymethyl)tetrahydro-1H-pyrrolizin-7a(5H)-yl)methoxy)pyrido[4,3-d]pyrimidin-4-yl)-1-(2-fluoroacryloyl)piperazin-2-yl)acetonitrile], for which the 50% inhibitory concentration (IC50) came to 121 nM.

`C=C(F)C(=O)N1CCN(c2nc(OCC3CCC4(CO)CCCN34)nc3c(F)c(-c4cccc5ccc(F)c(Cl)c45)ncc23)C[C@@H]1CC#N` (stereo partly drawn) [Example 217, 2-((2S)-4-(7-(8-chloro-7-fluoronaphthalen-1-yl)-8-fluoro-2-((7a-(hydroxymethyl)hexahydro-1H-pyrrolizin-3-yl)methoxy)pyrido[4,3-d]pyrimidin-4-yl)-1-(2-fluoroacryloyl)piperazin-2-yl)acetonitrile] returned an IC50 of 11 nM.

Regarding `C=CC(=O)N1CCN(c2ncnc3c(F)c(-c4cc(O)cc5ccccc45)ncc23)CC1` [Example 218, 1-(4-(8-fluoro-7-(3-hydroxynaphthalen-1-yl)pyrido[4,3-d]pyrimidin-4-yl)piperazin-1-yl)prop-2-en-1-one], the IC50 was 711 nM.

Compound `C=CC(=O)N1CCN(c2nc(C3CC3)nc3c(F)c(-c4cccc5ccc(F)c(Cl)c45)ncc23)C[C@@H]1CC#N` [Example 219, (S)-2-(1-acryloyl-4-(7-(8-chloro-7-fluoronaphthalen-1-yl)-2-cyclopropyl-8-fluoropyrido[4,3-d]pyrimidin-4-yl)piperazin-2-yl)acetonitrile] returned an IC50 of 538 nM.

Turning to `C=CC(=O)N1CCN(c2ncnc3c(F)c(-c4cc(O)cc5ccccc45)ncc23)C[C@@H]1CC#N` [Example 220, (S)-2-(1-acryloyl-4-(8-fluoro-7-(3-hydroxynaphthalen-1-yl)pyrido[4,3-d]pyrimidin-4-yl)piperazin-2-yl)acetonitrile], the IC50 came out at 22 nM.

In the case of `O=C(/C=C/CF)N1CC[C@@H]2[C@H]1CN2c1ncnc2c(F)c(-c3cccc4ccc(F)c(Cl)c34)ncc12` [Example 221], the IC50 came to 1930 nM.

The compound `C=CC(=O)N1CCN(c2ncnc3c(F)c(-c4ccccc4C(C)C)ncc23)CC1` [Example 222] yielded an IC50 of 10000 nM.

`C=CC(=O)N1CCN(c2ncnc3c(F)c(-c4cccc5ccccc45)ncc23)CC1` [Example 223]: inhibition was half-maximal at 10000 nM (IC50).

As for `C=CC(=O)N1CCN(c2ncnc3c(F)c(-c4ccccc4C4CC4)ncc23)CC1` [Example 224], 10000 nM corresponded to half-maximal inhibition (IC50).

Regarding `C=CC(=O)N1CCN(c2ncnc3c(F)c(-c4c(O)ccc5ccccc45)ncc23)CC1` [Example 225], the IC50 came to 4930 nM.

Compound `C=CC(=O)N1CC[C@@H]2[C@H]1CN2c1nc(OCC23CCCN2CCC3)nc2c(F)c(-c3cccc4ccc(F)c(Cl)c34)ncc12` [Example 227] registered an IC50 of 5 nM.

As for `C=CC(=O)N1C[C@@H]2[C@H]1CCN2c1nc(OC[C@@H]2CCCN2C)nc2c(F)c(-c3cccc4ccc(F)c(Cl)c34)ncc12` [Example 228], the IC50 was found to be 230 nM.

With `C=C(F)C(=O)N1CCN(c2nc(OC[C@@]34CCCN3C[C@H](F)C4)nc3c(F)c(-c4cccc5ccc(F)c(Cl)c45)ncc23)C[C@@H]1CC#N` [Example 229], the IC50 is 1 nM.

Compound `C=C(F)C(=O)N1CCN(c2nc(OCCNC(=O)C(C)C)nc3c(F)c(-c4cccc5ccc(F)c(Cl)c45)ncc23)C[C@@H]1CC#N` [Example 230] had an IC50 of 1850 nM.

Take `C=CC(=O)N1C[C@@H]2[C@H]1CCN2c1nc(C)nc2c(F)c(-c3cccc4ccc(F)c(Cl)c34)ncc12` [Example 231]: the midpoint of inhibition, the IC50, lay at 4280 nM.

Take `C=CC(=O)N1C[C@H]2[C@@H]1CCN2c1ncnc2c(F)c(-c3cccc4ccc(F)c(Cl)c34)ncc12` [Example 232]: the IC50 stood at 10000 nM.

Regarding `C=CC(=O)N1CCCC12CCN(c1ncnc3c(F)c(-c4cccc5ccc(F)c(Cl)c45)ncc13)C2` (centres unmarked) [Example 233], the IC50 stood at 10000 nM.

Regarding `C=CC(=O)N1CCN(c2ncnc3c(F)c(-c4cccc5ccc(F)c(Cl)c45)ncc23)CC12CC2` [Example 234], 10000 nM corresponded to half-maximal inhibition (IC50).

`C=CC(=O)N1CCC12CCN(c1ncnc3c(F)c(-c4cccc5ccc(F)c(Cl)c45)ncc13)C2` (centres unmarked) [Example 235] yielded an IC50 of 10000 nM.

Compound `C=CC(=O)N1CCCC12CN(c1ncnc3c(F)c(-c4cccc5ccc(F)c(Cl)c45)ncc13)C2` [Example 236] gave an IC50 of 10000 nM.

With `C=CC(=O)N1CCN(c2nc(C(F)F)nc3c(F)c(-c4cccc5ccc(F)c(Cl)c45)ncc23)C[C@@H]1CC#N` [Example 237], the 50% inhibitory concentration (IC50) turned out to be 230 nM.

With `C=CC(=O)N1CC[C@@H]2[C@H]1CN2c1nc(C)nc2c(F)c(-c3cccc4ccc(F)c(Cl)c34)ncc12` [Example 238], the IC50 stood at 379 nM.

On to `C=CC(=O)N1CC[C@@H]2[C@H]1CN2c1nc(OC[C@@H]2CCCN2C)nc2c(F)c(-c3cccc4ccc(F)c(Cl)c34)ncc12` [Example 239], for which inhibition was half-maximal at 5 nM (IC50).

Compound `C=C(F)C(=O)N1CCN(c2nc(O[C@@H]3CO[C@H]4[C@@H]3OC[C@H]4O)nc3c(F)c(-c4cccc5ccc(F)c(Cl)c45)ncc23)C[C@@H]1CC#N` [Example 240] displayed an IC50 of 10000 nM.

`C=CC(=O)N1CCN(c2ncnc3c(F)c(-c4cccc(Cl)c4C4CC4)ncc23)C[C@@H]1CC#N` [Example 241] yielded an IC50 of 111 nM.

`C=CC(=O)N1CCN(c2ncnc3c(F)c(-c4c(Cl)c(C)cc5[nH]ncc45)ncc23)C[C@@H]1CC#N` [Example 242] gave a half-inhibitory concentration (IC50) of 187 nM.
